From PubChem BioAssay (NCI)
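A five-concentration, 48-hour dose response in 96-well plates underlies each endpoint, interpolated linearly between surrounding concentrations. GI50 is the concentration that inhibits growth by half. At the TGI there is no net growth.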

Columns and labels:
Assay in all cases: NCI-60 cell line screen, 48 h
U251 CNS = test system: U251 CNS
MDA-MB-435 = test system: MDA-MB-435
NCI/ADR-RES ovarian = test system: NCI/ADR-RES ovarian
PC-3 prostate = test system: PC-3 prostate
NCI-H522 lung = test system: NCI-H522 lung

Compound	GI50 (U251 CNS)	TGI (U251 CNS)	GI50 (MDA-MB-435)	TGI (MDA-MB-435)	GI50 (NCI/ADR-RES ovarian)	TGI (NCI/ADR-RES ovarian)	GI50 (PC-3 prostate)	TGI (PC-3 prostate)	GI50 (NCI-H522 lung)	TGI (NCI-H522 lung)
COC1=CC(=O)c2nc(-c3cccc(C)n3)[nH]c2C1=O	20.4 µM	41.7 µM	35.6 µM	> 100 µM	32.5 µM	> 100 µM	11.8 µM	39.5 µM	19.1 µM	59.1 µM
CC(=O)CSCc1ccccn1		> 100 µM		> 100 µM		> 100 µM		> 100 µM		45.3 µM
CN1C(=O)c2cccc3cc([N+](=O)[O-])cc(c23)C1=O		> 10 µM		> 10 µM		> 10 µM		> 10 µM		> 10 µM
O=C1OC(C(O)CO)C(=O)C1=O (stereo not given)	5090 µM	> 10000 µM	2120 µM	4290 µM	7060 µM	> 10000 µM	4410 µM	> 10000 µM	1850 µM	3460 µM
Cc1cccc(N2CCN(C(=S)c3ccc4c(c3)OCO4)CC2)c1	1.89 µM	> 100 µM			0.338 µM	> 100 µM	4.14 µM	> 100 µM		
COc1ccccc1CNCCCN1C(=O)c2ccc3c4c(ccc(c24)C1=O)C(=O)N(CCCOCCCCOCCCN)C3=O	1.23 µM	2.69 µM	0.2 µM	0.429 µM	1.46 µM	4.37 µM	1.45 µM	5.17 µM	0.802 µM	2.18 µM
NS(=O)(=O)c1ccc(NC2(C(=O)O)CCCC2)cc1		> 100 µM		> 100 µM		> 100 µM		> 100 µM		> 100 µM
COc1nc2ccccc2cc1-c1nc2c(cnn2-c2ccc(Br)cc2)c(=O)[nH]1	0.0241 µM	7.42 µM	0.00957 µM	0.024 µM	0.0186 µM	1.58 µM	0.0231 µM	> 50 µM	0.0153 µM	
CCCCC(O)(c1ccc(Cl)cc1)C(CN1CCOCC1)c1ccc(Cl)cc1 (stereo not given)	13.6 µM	27.5 µM	15.3 µM	39 µM	12 µM	32.2 µM	7.68 µM	23.9 µM	7.26 µM	21.7 µM
C=C1C(=O)O[C@@H]2/C=C(\C)CC/C=C(/COC(C)=O)C[C@@H](OC(C)=O)[C@@H]12		36.7 µM		54.4 µM		57.8 µM		36.4 µM		3.2 µM
COC(=O)C1=CNC=C(C(=O)OC)C1C1=CC(=O)C(C)=CC1=O	16.5 µM	32.1 µM	15.9 µM	29.5 µM	16.5 µM	31.2 µM	16.3 µM	30.5 µM	19.8 µM	47.2 µM
CCCCCCCC/C=C/CCCCCCCC(=O)OC[C@H]1O[C@@H](n2ccc(N)nc2=O)C(F)(F)[C@@H]1O	< 0.016 µM	25.3 µM	< 0.0266 µM	> 100 µM	< 0.0217 µM	> 100 µM	0.752 µM	> 100 µM	0.201 µM	> 100 µM
COc1cc(-c2ccc3c(c2)NC(=O)/C3=C\c2ccc[nH]2)ccc1O	0.0221 µM	> 50 µM			0.0177 µM	> 50 µM	0.0228 µM	> 50 µM	0.00747 µM	> 50 µM
NCC1Nc2ccccc2[C@@H](O)C1O (stereo not given in full)		> 100 µM		> 100 µM		> 100 µM		> 100 µM		
C[C@@]12CC=C3c4nc(Nc5cccc(O)c5)sc4CC[C@]3(C)[C@H]1CC[C@]1(C)C(=O)CC[C@@H]21	2.24 µM	16.9 µM			3.1 µM	> 100 µM	1.41 µM	7.02 µM	2.14 µM	4.64 µM
CN1C/C=C\CCOc2cccc(c2)-c2ccnc(n2)Nc2cccc(c2)C1	0.0374 µM	0.678 µM	0.0624 µM	0.195 µM	0.0654 µM	1.45 µM	0.0713 µM	0.435 µM	0.0708 µM	0.334 µM
CN(C)C(=O)c1cc2cnc(Nc3ccc(-c4csc5c(=S)cc(N6CCOCC6)oc45)cc3)nc2n1C1CCCC1	0.481 µM	> 50 µM	0.687 µM	> 50 µM	1.02 µM	> 50 µM	0.312 µM	> 10.8 µM	1.3 µM	> 50 µM
COc1cc(/C=C/c2cc(/C=C/c3ccc(O)c(OC)c3)n(C(=O)Nc3ccc(F)c(Cl)c3)n2)ccc1O			0.0223 µM	0.102 µM	0.126 µM	3.09 µM	0.365 µM	6.58 µM		
Cc1cc(C(=O)Nc2ncc(Cc3cccc(C(F)(F)F)c3)s2)c2ccccc2n1	2.92 µM	> 100 µM			2.06 µM	> 100 µM	2.31 µM	> 100 µM	2.33 µM	> 100 µM
CCOC(=O)c1c(C)n(Cc2ccc(Cl)cc2Cl)c2c1c(CN(C)C)c(O)c1[nH]cnc12	14.8 µM	27.9 µM	23.6 µM	51.1 µM					17.1 µM	33.4 µM
